The source made the active and inactive calls. The calls are words filed in the database; no cut-off is given here.
Experiments:
[1] = target: T1, C-type lectin domain family 4 member E (Mus musculus) (UniProt Q9R0Q8); assay: Agonist activity at mouse mincle coupled with FcRgamma expressed in 2B4-NFAT-GFP reporter cells at 3 nmol/well after 16 hrs by flow cytometric analysis; type: cell-based
T1 sequence (whole entry): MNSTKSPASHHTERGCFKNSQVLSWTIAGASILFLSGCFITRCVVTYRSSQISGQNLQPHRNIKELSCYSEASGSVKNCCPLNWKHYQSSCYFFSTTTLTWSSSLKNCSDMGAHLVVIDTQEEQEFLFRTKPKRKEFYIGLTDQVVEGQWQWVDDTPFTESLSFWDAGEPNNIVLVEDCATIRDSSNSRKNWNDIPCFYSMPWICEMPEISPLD

[2] = target: T2, C-type lectin domain family 4 member E (Homo sapiens) (UniProt Q9ULY5); assay: Agonist activity at human mincle coupled with FcRgamma expressed in 2B4-NFAT-GFP reporter cells at 3 nmol/well after 16 hrs by flow cytometric analysis; type: cell-based
T2 sequence (whole entry): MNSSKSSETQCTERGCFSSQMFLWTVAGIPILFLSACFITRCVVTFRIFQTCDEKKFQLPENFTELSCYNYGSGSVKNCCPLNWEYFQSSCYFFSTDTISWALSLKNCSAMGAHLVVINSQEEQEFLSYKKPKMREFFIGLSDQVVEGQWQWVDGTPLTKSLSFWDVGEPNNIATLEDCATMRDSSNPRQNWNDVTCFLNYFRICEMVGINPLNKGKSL

SMILES	Activity [1]	Activity [2]
CCCCCCC(CCCCCCCCCCC(=O)OC)O[C@H]1O[C@H](CO)[C@@H](O)[C@H](O)[C@@H]1O[C@@H]1O[C@H](CO)[C@@H](O)[C@H](O)[C@@H]1O (some centres undefined)	Active	Active
CCCCCCC(CCCCCCCCCCC(=O)OC)O[C@@H]1O[C@H](CO)[C@H](O)[C@H](O)[C@H]1O (some centres undefined)	inactive	inactive
CCCCCCC(CCCCCCCCCCC(=O)OC)O[C@@H]1O[C@H](CO[C@H]2O[C@H](CO)[C@H](O)[C@H](O)[C@H]2O)[C@@H](O)[C@H](O)[C@H]1O (some centres undefined)	inactive	inactive
CCCCCCC(CCCCCCCCCCC(=O)OC)O[C@H]1O[C@H](CO)[C@H](O)[C@H](O)[C@H]1O (some centres undefined)	inactive	inactive
CCCCCCC(CCCCCCCCCCC(=O)OC)O[C@@H]1O[C@H](CO)[C@@H](O)[C@H](O)[C@@H]1O (some centres undefined)	inactive	inactive
CCCCCCC(CCCCCCCCCCC(=O)OC)O[C@@H]1O[C@H](CO)[C@@H](O)[C@H](O)[C@H]1O (some centres undefined)	inactive	inactive
CCCCCCC(CCCCCCCCCCC(=O)OC)O[C@H]1O[C@H](CO)[C@@H](O)[C@H](O)[C@@H]1O (some centres undefined)	inactive	inactive
CCCCCCC(CCCCCCCCCCC(=O)OC)O[C@H]1O[C@H](CO)[C@@H](O)[C@H](O)[C@H]1O (some centres undefined)	inactive	inactive
CCCCCCC(CCCCCCCCCCC(=O)OC)O[C@@H]1O[C@H](CO[C@H]2O[C@H](CO)[C@@H](O)[C@H](O)[C@H]2O)[C@@H](O)[C@H](O)[C@H]1O (some centres undefined)	inactive	inactive
CCCCCCC(CCCCCCCCCCC(=O)OC)O[C@@H]1O[C@H](CO[C@@H]2O[C@H](CO)[C@@H](O)[C@H](O)[C@H]2O)[C@@H](O)[C@H](O)[C@H]1O (some centres undefined)	Active	–

The next lines start with the values.

Activity [1]	Activity [2]	SMILES
inactive	inactive	CCCCCCC(CCCCCCCCCCC(=O)OC)O[C@@H]1O[C@H](CO)[C@@H](O[C@@H]2O[C@H](CO)[C@@H](O)[C@H](O)[C@H]2O)[C@H](O)[C@H]1O (some centres undefined)
Active	Active	CCCCCCC(CCCCCCCCCCC(=O)OC)O[C@H]1O[C@H](CO)[C@@H](O)[C@H](O)[C@@H]1O[C@H]1O[C@H](CO)[C@@H](O)[C@H](O)[C@@H]1O (some centres undefined)
Active	Active	CCCCCCC(CCCCCCCCCCC(=O)OC)O[C@@H]1O[C@H](CO)[C@@H](O)[C@H](O)[C@@H]1O[C@H]1O[C@H](CO)[C@@H](O)[C@H](O)[C@@H]1O (some centres undefined)
Active	Active	CCCCCCC(CCCCCCCCCCC(=O)OC)O[C@@H]1O[C@H](CO)[C@@H](O)[C@H](O)[C@@H]1O[C@@H]1O[C@H](CO)[C@@H](O)[C@H](O)[C@@H]1O (some centres undefined)
inactive	inactive	CCCCCCC(CCCCCCCCCCC(=O)OC)O[C@@H]1O[C@H](CO)[C@@H](O[C@H]2O[C@H](CO)[C@@H](O)[C@H](O)[C@H]2O)[C@H](O)[C@H]1O (some centres undefined)

Source: ChEMBL document CHEMBL4382288, “Synthesis of 12-O-Mono- and Diglycosyl-oxystearates, a New Class of Agonists for the C-type Lectin Receptor Mincle” (ACS Med Chem Lett, 2019)
